Measured values published in patent US20260223853A1, “PESTICIDALLY ACTIVE HETEROCYCLIC DERIVATIVES WITH SULFUR CONTAINING SUBSTITUENTS” (SYNGENTA CROP PROTECTION AG, priority 2023, published 2026).

How the values were obtained:
Assay type in all cases: in vivo
[1] = system: Myzus persicae (Green peach aphid); experiment: Example B4: Activity against Myzus persicae (green peach aphid), feeding/contact activity, sunflower leaf discs; conditions: foliar, 144 h, application rate of 200 ppm, 6 days after infestation
Description: Example B4: Activity against Myzus persicae (Green peach aphid) Feeding/Contact activity Sunflower leaf discs were placed onto agar in a 24-well microtiter plate and sprayed with aqueous test solutions prepared from 10′000 ppm DMSO stock solutions. After drying, the leaf discs were infested with an aphid population of mixed ages. The samples were assessed for mortality 6 days after infestation.

[2] = system: Plutella xylostella (Diamond Back Moth); experiment: Example B6: Activity against Plutella xylostella (diamond back moth), artificial diet, eggs; conditions: 192 h, application rate of 200 ppm, 8 days after infestation, in comparison to untreated samples, read-out: effect in at least one of the two categories (mortality or growth inhibition)
Description: Example B6: Activity Against Plutella xylostella (Diamond Back Moth)
24-well microtiter plates with artificial diet were treated with aqueous test solutions prepared from 10′000 ppm DMSO stock solutions by pipetting. After drying, Plutella eggs were pipetted through a plastic stencil onto a gel blotting paper and the plate was closed with it. The samples were assessed for mortality and growth inhibition in comparison to untreated samples 8 days after infestation. The following compounds gave an effect of at least 80% in at least one of the two categories (mortality or growth inhibition) at an application rate of 200 ppm: P.1, P.2, P.3, P.4, P.5, P.6, P.7, P.8, P.9, P.10, P.11, P.12.

[3] = system: Diabrotica balteata (Corn Root Worm); experiment: Example B2: Activity against Diabrotica balteata (corn root worm), maize sprouts, L2 larvae; conditions: 96 h, application rate of 200 ppm, 4 days after infestation, in comparison to untreated samples, read-out: effect in at least one of the two categories (mortality or growth inhibition)
Description: Example B2: Activity Against Diabrotica balteata (Corn Root Worm)
Maize sprouts placed onto an agar layer in 24-well microtiter plates were treated with aqueous test solutions prepared from 10′000 ppm DMSO stock solutions by spraying. After drying, the plates were infested with L2 larvae (6 to 10 per well). The samples were assessed for mortality and growth inhibition in comparison to untreated samples 4 days after infestation.

[4] = system: Spodoptera littoralis (Egyptian Cotton Leaf Worm); experiment: Example B7: Activity against Spodoptera littoralis (Egyptian cotton leaf worm), cotton leaf discs, L1 larvae; conditions: foliar, 72 h, application rate of 200 ppm, 3 days after infestation, in comparison to untreated samples, read-out: control (at least one of mortality, anti-feedant effect, growth inhibition)
Description: Example B7: Activity Against Spodoptera littoralis (Egyptian Cotton Leaf Worm)
Cotton leaf discs were placed onto agar in 24-well microtiter plates and sprayed with aqueous test solutions prepared from 10′000 ppm DMSO stock solutions. After drying the leaf discs were infested with five L1 larvae. The samples were assessed for mortality, anti-feeding effect, and growth inhibition in comparison to untreated samples 3 days after infestation. Control of Spodoptera littoralis by a test sample is given when at least one of the categories mortality, anti-feedant effect, and growth inhibition is higher than the untreated sample.

[5] = system: Chilo suppressalis (Striped Rice Stemborer); experiment: Example B1: Activity against Chilo suppressalis (striped rice stemborer), artificial diet, L2 larvae; conditions: 144 h, application rate of 200 ppm, 6 days after infestation, in comparison to untreated samples, read-out: control (at least one of mortality, anti-feedant effect, growth inhibition)
Description: Example B1: Activity Against Chilo suppressalis (Striped Rice Stemborer)
24-well microtiter plates with artificial diet were treated with aqueous test solutions prepared from 10′000 ppm DMSO stock solutions by pipetting. After drying, the plates were infested with L2 larvae (6-8 per well). The samples were assessed for mortality, anti-feeding effect, and growth inhibition in comparison to untreated samples 6 days after infestation. Control of Chilo suppressalis by a test sample is given when at least one of the categories mortality, anti-feedant effect, and growth inhibition is higher than the untreated sample.

[6] = system: Euschistus heros (Neotropical Brown Stink Bug); experiment: Example B3: Activity against Euschistus heros (neotropical brown stink bug), soybean leaves, N2 nymphs; conditions: 120 h, application rate of 200 ppm, 5 days after infestation, in comparison to untreated samples, read-out: effect in at least one of the two categories (mortality or growth inhibition)
Description: Example B3: Activity Against Euschistus heros (Neotropical Brown Stink Bug)
Soybean leaves on agar in 24-well microtiter plates were sprayed with aqueous test solutions prepared from 10′000 ppm DMSO stock solutions. After drying the leaves were infested with N2 nymphs. The samples were assessed for mortality and growth inhibition in comparison to untreated samples 5 days after infestation.

[7] = system: Myzus persicae (Green peach aphid); experiment: Example B5: Activity against Myzus persicae (green peach aphid), systemic activity, pea seedlings; conditions: 144 h, test rate of 24 ppm, 6 days after placing seedlings into test solutions
Description: Example B5: Activity Against Myzus persicae (Green Peach Aphid) Systemic Activity
Roots of pea seedlings infested with an aphid population of mixed ages were placed directly into aqueous test solutions prepared from 10′000 DMSO stock solutions. The samples were assessed for mortality 6 days after placing seedlings into test solutions.

CCS(=O)(=O)c1c(N2CCc3nc(C(F)(F)F)ccc3C2=O)nc2cc(C(F)(F)F)ccn12 [P.1, 6-[3-ethylsulfonyl-7-(trifluoromethyl)imidazo[1,2-a]pyridin-2-yl]-2-(trifluoromethyl)-7,8-dihydro-1,6-naphthyridin-5-one]
≥ 80%: mortality at 200 ppm [1] | percent effect (mortality or growth inhibition) at 200 ppm [2] | percent effect (mortality or growth inhibition) at 200 ppm [3] | control at 200 ppm [4] | percent control (mortality, anti-feedant effect or growth inhibition) at 200 ppm [5]

CCS(=O)(=O)c1cc(C2(C#N)CC2)cnc1N1CCc2cc(C(F)(F)F)ccc2C1=O [P.2, 1-[5-ethylsulfonyl-6-[1-oxo-6-(trifluoromethyl)-3,4-dihydroisoquinolin-2-yl]-3-pyridyl]cyclopropane-carbonitrile]
≥ 80%: mortality at 200 ppm [1] | percent effect (mortality or growth inhibition) at 200 ppm [2] | percent effect (mortality or growth inhibition) at 200 ppm [3] | percent effect (mortality or growth inhibition) at 200 ppm [6] | percent control (mortality, anti-feedant effect or growth inhibition) at 200 ppm [5]

CCS(=O)(=O)c1cc(C2(C#N)CC2)cnc1N1CCc2nc(C(F)(F)F)ccc2C1=O [P.3, 1-[5-ethylsulfonyl-6-[5-oxo-2-(trifluoromethyl)-7,8-dihydro-1,6-naphthyridin-6-yl]-3-pyridyl] cyclopropane-carbonitrile]
≥ 80%: mortality at 200 ppm [1] | percent effect (mortality or growth inhibition) at 200 ppm [2] | percent effect (mortality or growth inhibition) at 200 ppm [3] | control at 200 ppm [4] | percent effect (mortality or growth inhibition) at 200 ppm [6] | mortality at 24 ppm [7] | percent control (mortality, anti-feedant effect or growth inhibition) at 200 ppm [5]

CCS(=O)(=O)c1cc(C2(C#N)CC2)cnc1N1CCc2cc(OC(F)(F)F)ccc2C1=O [P.4, 1-[5-ethylsulfonyl-6-[1-oxo-6-(trifluoromethoxy)-3,4-dihydroisoquinolin-2-yl]-3-pyridyl] cyclopropane-carbonitrile]
≥ 80%: mortality at 200 ppm [1] | percent effect (mortality or growth inhibition) at 200 ppm [2] | percent effect (mortality or growth inhibition) at 200 ppm [3] | control at 200 ppm [4] | percent effect (mortality or growth inhibition) at 200 ppm [6] | percent control (mortality, anti-feedant effect or growth inhibition) at 200 ppm [5]

CCS(=O)(=O)c1cc(C2(C#N)CC2)cnc1N1CCc2nc(C(F)(F)C(F)(F)F)ccc2C1=O [P.5, 1-[5-ethylsulfonyl-6-[5-oxo-2-(1,1,2,2,2-pentafluoroethyl)-7,8-dihydro-1,6-naphthyridin-6-yl]-3-pyridyl] cyclopropane-carbonitrile]
≥ 80%: percent effect (mortality or growth inhibition) at 200 ppm [2] | percent effect (mortality or growth inhibition) at 200 ppm [3] | control at 200 ppm [4] | percent effect (mortality or growth inhibition) at 200 ppm [6] | percent control (mortality, anti-feedant effect or growth inhibition) at 200 ppm [5]

CCS(=O)(=O)c1cc(C2(C#N)CC2)cnc1N1CCc2c(ccc3c2OC(F)(F)O3)C1=O [P.6, 1-[6-(2,2-difluoro-6-oxo-8,9-dihydro-[1,3]dioxolo[4,5-f]isoquinolin-7-yl)-5-ethylsulfonyl-3-pyridyl]cyclopropane-carbonitrile]
≥ 80%: mortality at 200 ppm [1] | percent effect (mortality or growth inhibition) at 200 ppm [2] | percent effect (mortality or growth inhibition) at 200 ppm [3] | control at 200 ppm [4] | percent effect (mortality or growth inhibition) at 200 ppm [6] | percent control (mortality, anti-feedant effect or growth inhibition) at 200 ppm [5]

CCS(=O)(=O)c1cc(C2(C#N)CC2)cnc1N1CCc2nc(OC3CC3)ccc2C1=O [P.7, 1-[6-[2-(cyclopropoxy)-5-oxo-7,8-dihydro-1,6-naphthyridin-6-yl]-5-ethylsulfonyl-3-pyridyl]cyclopropane-carbonitrile]
≥ 80%: mortality at 200 ppm [1] | percent effect (mortality or growth inhibition) at 200 ppm [2] | percent effect (mortality or growth inhibition) at 200 ppm [3] | control at 200 ppm [4] | mortality at 24 ppm [7] | percent control (mortality, anti-feedant effect or growth inhibition) at 200 ppm [5]

CCS(=O)(=O)c1cc(C2(C#N)CC2)cnc1N1CCc2nc(Cl)ccc2C1=O [P.8, 1-[6-(2-chloro-5-oxo-7,8-dihydro-1,6-naphthyridin-6-yl)-5-ethylsulfonyl-3-pyridyl]cyclopropane-carbonitrile]
≥ 80%: percent effect (mortality or growth inhibition) at 200 ppm [2] | control at 200 ppm [4] | mortality at 24 ppm [7]

CCS(=O)(=O)c1cc(C2(C#N)CC2)cnc1N1CCc2nc(OCC(F)(F)Cl)ccc2C1=O [P.9, 1-[6-[2-(2-chloro-2,2-difluoro-ethoxy)-5-oxo-7,8-dihydro-1,6-naphthyridin-6-yl]-5-ethylsulfonyl-3-pyridyl]cyclopropane-carbonitrile]
≥ 80%: mortality at 200 ppm [1] | percent effect (mortality or growth inhibition) at 200 ppm [2] | percent effect (mortality or growth inhibition) at 200 ppm [3] | control at 200 ppm [4] | percent effect (mortality or growth inhibition) at 200 ppm [6] | percent control (mortality, anti-feedant effect or growth inhibition) at 200 ppm [5]

CCS(=O)(=O)c1cc(C2(C#N)CC2)cnc1N1CCc2nc(OCC(F)(F)C(F)F)ccc2C1=O [P.10, 1-[5-ethylsulfonyl-6-[5-oxo-2-(2,2,3,3-tetrafluoropropoxy)-7,8-dihydro-1,6-naphthyridin-6-yl]-3-pyridyl] cyclopropane-carbonitrile]
≥ 80%: mortality at 200 ppm [1] | percent effect (mortality or growth inhibition) at 200 ppm [2] | percent effect (mortality or growth inhibition) at 200 ppm [3] | control at 200 ppm [4] | percent control (mortality, anti-feedant effect or growth inhibition) at 200 ppm [5]

CCS(=O)(=O)c1cc(C2(C#N)CC2)cnc1N1CCc2nc(OCC(Cl)(Cl)Cl)ccc2C1=O [P.11, 1-[5-ethylsulfonyl-6-[5-oxo-2-(2,2,2-trichloroethoxy)-7,8-dihydro-1,6-naphthyridin-6-yl]-3-pyridyl]cyclopropane-carbonitrile]
≥ 80%: percent effect (mortality or growth inhibition) at 200 ppm [2] | control at 200 ppm [4] | percent control (mortality, anti-feedant effect or growth inhibition) at 200 ppm [5]

CCS(=O)(=O)c1cc(C2(C#N)CC2)cnc1N1CCc2nc(OCC(F)(F)C(F)(F)F)ccc2C1=O [P.12, 1-[5-ethylsulfonyl-6-[5-oxo-2-(2,2,3,3,3-pentafluoropropoxy)-7,8-dihydro-1,6-naphthyridin-6-yl]-3-pyridyl]cyclopropane-carbonitrile]
≥ 80%: mortality at 200 ppm [1] | percent effect (mortality or growth inhibition) at 200 ppm [2] | percent effect (mortality or growth inhibition) at 200 ppm [3] | control at 200 ppm [4] | percent control (mortality, anti-feedant effect or growth inhibition) at 200 ppm [5]

CCS(=O)(=O)c1cc(C2(C#N)CC2)cnc1N1CCc2nc(OCC(Cl)(Cl)C(F)(F)F)ccc2C1=O [P.13, 1-[6-[2-(2,2-dichloro-3,3,3-trifluoro-propoxy)-5-oxo-7,8-dihydro-1,6-naphthyridin-6-yl]-5-ethylsulfonyl-3-pyridyl]cyclopropane-carbonitrile]
≥ 80%: control at 200 ppm [4] | percent control (mortality, anti-feedant effect or growth inhibition) at 200 ppm [5]
